Records with an inconclusive call do not appear.

We go through 93 compounds from PubChem BioAssay AID1117319 (Southern Research Institute, 2015).

For the assay, the target named is Virion infectivity factor (Human immunodeficiency virus type 1 group M subtype B (isolate BH10)) + Virion infectivity factor (Human immunodeficiency virus type 1 group M subtype B (isolate BRU/LAI)) + Virion infectivity factor (Human immunodeficiency virus type 1 group M subtype B (isolate PCV12)) + Virion infectivity factor (Human immunodeficiency virus type 1 group M subtype B (isolate HXB2)) + DNA dC->dU-editing enzyme APOBEC-3G (Homo sapiens) (UniProt P69720+P69721+P69722+P69723+Q9HC16). The assay can be described thus: inhibitors of Vif binding to APOBEC3G peptide, primary screen, biochemical, TR-FRET, GST-Vif 1-94, biotin-A3G peptide, dose response retest (AID 1117319).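 Also: Vif residues 1-94 fused to GST binding biotinylated APOBEC3G peptide 110-148.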
Broadly, the IC50 is the midpoint of a concentration-inhibition curve. On to `CC(=O)c1sc2nc(-c3ccco3)ccc2c1N`, for which the IC50 is 2.78 µM.

Consider `Cc1ccc(C=C2C(Cl)=C(Cl)C(Cl)=C2Cl)cc1`, for which the IC50 is 2.1 µM.

On to `O=C1c2ccccc2C(=O)N1OCCOCCOCCBr`, for which the concentration for half-maximal inhibition (IC50) is 92.3 µM.

Consider `NC(=O)COC(=O)c1ccc(Oc2ccccc2)cc1`, for which the IC50 was 98.9 µM.

Turning to `O=C1NC(=O)N(Cc2ccc(F)cc2)C(=O)/C1=C\C=C\c1ccco1`, the IC50 was 19.2 µM.

Take `COC/C=C/C1=CC2=CC(=O)C(C)(OC(=O)c3ccco3)C(=O)C2=CO1` (stereo not drawn): the IC50 is 1.52 µM.

On to `O=[N+]([O-])c1ccc(N/N=C/c2ccc(O)c(O)c2O)c(S(=O)(=O)N2CCOCC2)c1`, for which the IC50 was 1.14 µM.

`CC(=O)NN1C(=O)/C(=C\c2ccc(Br)o2)SC1=S`: the half-maximal inhibitory concentration (IC50) is 5.73 µM.

Take `COC(=O)c1cnn2c(C(F)(F)F)cc(-c3ccco3)nc12`: the IC50 is 7.16 µM.

Consider `Cn1cccc1/C=C1\C(=O)NC(=O)N(Cc2ccccc2)C1=O`, for which the half-maximal inhibitory concentration (IC50) was 11.2 µM.

Take `Cc1ccc(C2C(C#N)=C(N)Oc3c2oc(CO)cc3=O)o1` (stereo not drawn): the IC50 is 2.04 µM.

As for `CC(/C=C/c1ccco1)=N\NC(=O)c1cccnc1`, the IC50 is 20.3 µM.

`O=C(O)c1cccc(CSc2nnc(COc3ccccc3)o2)c1`: the IC50 is 88.2 µM.

In the case of `C=CCN1CCc2cccc3c2[C@H]1Cc1ccc(O)c(O)c1-3`, the IC50 was 14.8 µM.

With `CCn1cc(CNC(=O)c2ccc(Cl)c([N+](=O)[O-])c2)c(C)n1`, the IC50 was 15.7 µM.

For `COC(=O)CCC(=O)OC1(C)C(=O)C2=CN(CCCOC(C)C)C(c3ccc(OC)cc3)=CC2=C(Br)C1=O` (stereo not drawn), the IC50 was 11.5 µM.

With `O=C(O)c1ccc(-n2cccc2/C=C2/NC(=O)N(c3cccc(Cl)c3)C2=O)cc1`, the IC50 is 1.71 µM.

Consider `C/C(N)=C(/C#N)C(=O)CSc1nnc(Nc2c(C)cccc2C)s1`, for which the IC50 was 17.5 µM.

On to `CC(=O)N(C1=C(Cl)C(=O)c2ccccc2C1=O)c1ccc(C(=O)O)cc1`, for which the IC50 was 59.7 µM.

In the case of `O=C(Nc1nc(-c2ccco2)c(-c2ccco2)s1)c1ccc(F)cc1F`, the IC50 is 85.4 µM.

With `COc1ccc(/C=N\NC(=O)c2cc(O)c(O)c(O)c2)cc1CN1CCN(c2ccc(F)cc2)CC1`, the IC50 is below 2.47 µM.

For the compound `Cc1cc(C)cc(Nc2ncc3c(n2)CC(c2ccco2)CC3=O)c1` (stereo not drawn), the IC50 was 6.84 µM.

For `CCC(C)NC(=O)Cc1cn(C)c2ccccc12` (stereo not drawn), the concentration for half-maximal inhibition (IC50) was 87.5 µM.

In the case of `O=C(NCCCO)Nc1ccc2nc(-c3ccco3)c(-c3ccco3)nc2c1`, the concentration for half-maximal inhibition (IC50) was 0.26 µM.

As to `CCN(CC)c1ccc(C(=C2C=CC(=[N+](CC)CC)C=C2)c2ccccc2)cc1`, the IC50 was 11.8 µM.

For the compound `Cc1ccc(Nc2ccc(N)cc2S(=O)(=O)O)cc1`, the IC50 was 32 µM.

For `Nc1ccc(S(=O)(=O)c2cc(O)c3ccccc3c2O)cc1`, the IC50 was 24.8 µM.

Regarding `O=C(O)C1Nc2c(Cl)cc(Cl)c(Cl)c2C2C=CCC12` (stereo not drawn), the IC50 was 30 µM.

Turning to `CCOC(=O)c1ccc(NS(=O)(=O)c2ccc3oc(=O)[nH]c3c2)cc1`, the IC50 is 88.2 µM.

Turning to `CN1CCN(S(=O)(=O)c2ccc(NC(=S)NC(=O)c3ccc(Cl)cc3)cc2)CC1`, the IC50 is 80.7 µM.

Turning to `Nc1cc(N)c(OCC(F)(F)F)cc1OCC(F)(F)F`, the IC50 was 9.47 µM.

Turning to `CCOc1cc(N2CCOCC2)c(OCC)cc1NS(=O)(=O)c1ccc(Cl)s1`, the IC50 is 3.22 µM.

On to `CCCSC1=N/C(=C\C=C\c2ccco2)C(=O)S1`, for which the concentration for half-maximal inhibition (IC50) was 3.79 µM.

`O=C1C=Cc2ccccc2C1=O`: the IC50 is 10.6 µM.

As to `CCN=c1scc(C)n1/N=C/c1ccc(O)c(O)c1O`, the IC50 was 2.47 µM.

Take `O=C(NCCO)Nc1ccc2nc(-c3ccco3)c(-c3ccco3)nc2c1`: the IC50 was 0.24 µM.

As to `CCC(C)[C@@H](C(=O)Nc1ccc2c(c1)OCO2)N1Cc2ccccc2C1=O` (stereo partly drawn), the IC50 was 98.4 µM.

For `O=C1CC=C2C3CC4N(CCC45c4cc(O)c(O)cc4N1C25)CC3=CCBr` (stereo not drawn), the half-maximal inhibitory concentration (IC50) is 0.7 µM.

For `O=C1CC(c2ccco2)CC(O)=C1C=Nc1cc(Cl)cc(Cl)c1` (stereo not drawn), the IC50 is 4.12 µM.

For `CCCOc1ccc(N)cc1N`, the IC50 is 7.66 µM.

With `Cc1cc(C(C)c2ccccc2)c(O)c(CN2CCOCC2)c1C` (stereo not drawn), the IC50 was 28.8 µM.

Consider `Cc1cccc(/C=C(\C(=O)O)c2ccc(S(=O)(=O)N3CCCC3)s2)c1`, for which the IC50 was 22 µM.

On to `COc1ccccc1NC(=O)c1oc2ccc(C)cc2c1C`, for which the half-maximal inhibitory concentration (IC50) is 98 µM.

On to `COc1ccc2c(c1)CC1(CN2C)C(=O)NC(=O)N(c2ccc(C)cc2)C1=O` (stereo not drawn), for which the IC50 is 58.9 µM.

For `Cc1ccc(C)n1-c1cccc(C(=O)O)c1`, the IC50 was 0.72 µM.

As for `CC1CCCCC1NC(=O)COC(=O)c1c2c(nc3ccccc13)/C(=C/c1ccco1)CC2` (stereo not drawn), the IC50 is 1.33 µM.

For the compound `COc1ccc(O)c(C(=O)C2c3ccccc3C(=O)N2c2ccc(C)cc2)c1` (stereo not drawn), the IC50 was 20.4 µM.

As for `COC(=O)C1=COC(C)C2CN3CCc4c([nH]c5ccccc45)C3CC12` (stereo not drawn), the IC50 is 17.9 µM.

With `C[C@H]1c2cccc(O)c2C(O)=C2C(=O)[C@]3(O)C(O)=C(C(N)=O)C(=O)[C@@H](N(C)C)[C@@H]3[C@@H](O)[C@@H]21`, the IC50 is 13.6 µM.

For `COc1ccc(-c2nc3oc4cc(OC)ccc4c(=O)c3c(=O)n2Cc2ccco2)cc1`, the IC50 was 98.7 µM.

As to `CC1(C)Cc2nc3sc4c(SCC(=O)NCc5ccco5)ncnc4c3cc2CO1`, the IC50 is 79.5 µM.

As for `CCN1CCN(c2cc(N3CCN(C(=O)c4ccco4)CC3)c3c4c(onc24)-c2ccccc2C3=O)CC1`, the IC50 was 3.06 µM.

In the case of `Cc1cc(C(F)(F)F)n2nc(C(=O)O)c(Cl)c2n1`, the IC50 was 79.9 µM.

As to `CC1CC(=O)c2c(cc3c(-c4c(O)cc(O)c5c(O)c6c(cc45)OC(C)CC6=O)c(O)cc(O)c3c2O)O1` (stereo not drawn), the IC50 is 0.41 µM.

For `CNc1ccc(Br)cc(C(=O)/C=C/c2ccc3c(c2)OCO3)c1=O`, the IC50 is 21.9 µM.

With `O=C1CC(c2ccco2)CC(O)=C1C=NCC1CCNCC1` (stereo not drawn), the IC50 is 13.5 µM.

For the compound `O=C(OCC1O[C@@H](OC(=O)c2cc(O)c(O)c(O)c2)[C@@H](OC(=O)c2cc(O)c(O)c(O)c2)[C@@H](OC(=O)c2cc(O)c(O)c(O)c2)[C@@H]1OC(=O)c1cc(O)c(O)c(O)c1)c1cc(O)c(O)c(O)c1` (stereo partly drawn), the IC50 was below 0.195 µM.

As to `O=C(N/N=C/C(Br)=C/c1ccccc1)c1cc(-c2ccco2)[nH]n1`, the concentration for half-maximal inhibition (IC50) is 5.12 µM.

On to `CCOC(=O)C1CCCN(C(=O)c2cc(-c3ccco3)nc3ccccc23)C1` (stereo not drawn), for which the IC50 was 2.64 µM.

For `COc1cc(C(=O)NNC(=S)NCc2ccco2)cc(OC)c1OC`, the IC50 was 63.5 µM.

For the compound `O=C1C=C(N2CC2)c2ccccc2C1=O`, the IC50 was 11.3 µM.

For the compound `COc1cccc(-n2c(/C=C/c3ccc(O)c(O)c3)nc3ccccc3c2=O)c1`, the concentration for half-maximal inhibition (IC50) was 10.7 µM.

As to `Oc1ccc(NCc2ccccc2OCc2ccccc2)cc1`, the IC50 is 3.97 µM.

With `O=C(NCCO)c1ccc2nc(-c3ccco3)c(-c3ccco3)nc2c1`, the IC50 was 0.88 µM.

As to `Cc1ccc(C)c2[nH]c(=O)c(CN(Cc3ccc4c(c3)OCO4)Cc3nnnn3Cc3ccco3)cc12`, the IC50 was 12.4 µM.

Turning to `O=C(O)CCCN1C(=O)/C(=C\C(Cl)=C\c2ccccc2)SC1=S`, the IC50 was 2.45 µM.

Turning to `O=C1NC(=O)N(c2ccc(Cl)cc2)C(=O)/C1=C\c1ccc(Sc2nc3ccccc3[nH]2)o1`, the IC50 was 11.7 µM.

Regarding `CCOC(=O)c1cc2cc(F)ccc2nc1C`, the IC50 was 1.65 µM.

With `CCOc1ccc(-n2c(=O)c3c(C)c(C)sc3n(CC(=O)NCc3ccco3)c2=O)cc1`, the IC50 was 74.9 µM.

For `Cc1cccc(C)c1NC(=O)c1ccc(-n2cnnn2)cc1`, the IC50 was 35.8 µM.

Consider `COC(=O)C1C(O)C(C)C(O)C(C)(O)/C=C\C=C(/C)C(=O)Nc2c(C)c(OC(C)=O)c3c(c2O)C(=O)C(C)=C2OCOC(=C23)/C(C)=C/C(C)(O)C(O)C(C)C1O` (stereo not drawn), for which the IC50 is 13.6 µM.

Consider `O=C(CSc1nc2cc([N+](=O)[O-])ccc2n1-c1ccccc1)NCc1ccc2c(c1)OCO2`, for which the IC50 was 46.6 µM.

For `Cc1ccc(-n2nc(C)c(C3C(C#N)=C(N)Oc4c3c(=O)oc3ccccc43)c2Cl)cc1` (stereo not drawn), the half-maximal inhibitory concentration (IC50) was 11.1 µM.

On to `COc1cc(C(=O)OCCN2CCCCC2)ccc1O`, for which the IC50 is 45.4 µM.

On to `O=C(O)c1cccc2cccc(-c3c4ccc(=O)c(O)c-4oc4c(O)c(O)ccc34)c12`, for which the IC50 is 0.53 µM.

Regarding `CN(C)[C@@H]1C(=O)C(C(=O)NCN2CCCC2)=C(O)[C@@]2(O)C(=O)C3=C(O)c4c(O)cccc4[C@@](C)(O)C3CC12` (stereo partly drawn), the 50% inhibitory concentration (IC50) was 0.33 µM.

Take `CCC1=NN2C(=N)/C(=C\c3ccc(SCc4ccco4)o3)C(=O)N=C2S1`: the IC50 is 10.4 µM.

Consider `NC(=O)c1c(NC(=O)Cc2cccs2)sc2c1CCC2`, for which the half-maximal inhibitory concentration (IC50) is 49.5 µM.

As for `CNc1c(C(=O)O)ccc2c1C(=O)c1ccccc1C2=O`, the 50% inhibitory concentration (IC50) is 25 µM.

`CCOC(=O)C1CCN(C(=O)COc2ccc(S(=O)(=O)NC(C)C)cc2)CC1`: the IC50 was 27.8 µM.

Regarding `O=C(Nc1ccccc1)C1=C(O)CC(c2ccco2)CC1=Nc1ccccc1` (stereo not drawn), the IC50 is 15.1 µM.

Consider `Cc1ccc(Cn2c(=S)[nH]c3ccc(N4CCOCC4)cc3c2=O)o1`, for which the IC50 was 0.61 µM.

With `O=C(/C=C/c1ccc(O)c(O)c1)OC1C(O)CC(OC(=O)/C=C/c2ccc(O)c(O)c2)(C(=O)O)CC1O` (stereo not drawn), the IC50 is 16.2 µM.

Take `CC(=O)c1ccc(S(=O)(=O)Nc2cccc(-n3cnnn3)c2)cc1`: the IC50 is 12.1 µM.

For `CCOC(=O)N1CCN(c2ccc(O)cc2)CC1`, the IC50 is 16.8 µM.

For `CCN(CC)c1ccc2oc(=O)c(C)nc2c1`, the IC50 is 2.87 µM.

For `O=C1C=C(c2c(O)ccc3ccccc23)c2ccccc2C1=O`, the IC50 is 2.54 µM.

As to `COC(=O)C1=C(N)OC2=C(C(=O)CCC2)C1c1cccs1` (stereo not drawn), the 50% inhibitory concentration (IC50) is 44.8 µM.

Consider `CN1CCc2cccc3c2[C@@H]1Cc1ccc(O)c(O)c1-3`, for which the IC50 is 1.66 µM.

With `CCN1/C(=C/C=C/C=C/C=C/c2sc3ccccc3[n+]2CC)Sc2ccccc21`, the IC50 is 4.33 µM.

As to `O=C1CC(c2ccco2)CC(O)=C1C=Nc1cc(Cl)ccc1O` (stereo not drawn), the IC50 was 4.47 µM.

`O=C(NC1CCC(C(=O)O)CC1)OCc1ccccc1` (stereo not drawn): the IC50 was 12.4 µM.

On to `Cc1nn(-c2ccccn2)c2c1C(=O)C(Br)CC2` (stereo not drawn), for which the IC50 is 3.41 µM.
